# Laboratory results reported in patent US20250163150A1, “COMBINATION THERAPIES COMPRISING A KRAS INHIBITOR FOR THE TREATMENT OF CANCER” (I-Mab Biopharma US Limited, priority 2022, published 2025).
# B1: TJC4: anti-CD47 antibody with VH SEQ ID NO: 1, VL SEQ ID NO: 2 and human IgG4 Fc region comprising S228P substitution (antibody, V domains shown)
# VH: EVQLVESGGGLVKPGGSLRLSCAASGLTFERAWMNWVRQAPGKGLEWVGRIKRKTDGETTDYAAPVKGRFSISRDDSKNTLYLQMNSLKTEDTAVYYCAGSNRAFDIWGQGTMVTVSS
# VL: DIVMTQSPDSLAVSLGERATINCKSSQSVLYAGNNRNYLAWYQQKPGQPPKLLINQASTRASGVPDRFSGSGSGTEFTLIISSLQAEDVAIYYCQQYYTPPLAFGGGTKLEIK
# modifications: human IgG4 Fc with S228P, no entry
# Key:
# [1] = test system: human NCI-H358 non-small cell lung cancer (NSCLC) tumor xenografts (KRAS G12C); test: In vivo anti-tumor efficacy in mice bearing NCI-H358 NSCLC tumor xenografts; set-up: species or system CB17 SCID mice; settings: 1 mg/kg QD (AMG-510 p.o., TJC4 i.p.), tumor size over 15 days, FIG. 1
# Protocol: The anti-tumor efficacy of anti-CD47 antibody TJC4 in combination with the KRAS G12C inhibitor AMG-510 was assessed in mice bearing human NCI-H358 non-small cell lung cancer (NSCLC) tumor xenografts. The NCI-H358 cell line, which was established from a chemotherapy-naïve NSCLC tumor, harbors a KRAS G12C mutation. TJC4 is an exemplary anti-CD47 antibody that comprises a VH that comprises SEQ ID NO: 1, a VL that comprises SEQ ID NO: 2, and a human IgG4 Fe region that comprises an S228P substitution (EU numbering). AMG-510 is also known as Sotorasib. KRAS G12C mutations, which are common in NSCLC, lead to constitutive activation of the tumor growth-promoting RAS/MAPK signaling pathway. […]
# Each animal's tumor size was measured three times per week for 15 days. Tumor size was calculated as V=0.5L×W^2, where L and W indicate long and short diameters of the tumor, respectively. Anti-tumor efficacy of the drugs was also analyzed by TGI % (percentage of tumor growth inhibition). TGI % was calculated as: […]
# where TRTV is treatment group RTV, and CRTV is control group RTV. RTV=VN/V1, where V1 is the mean tumor volume measured on Day 1 of administration, and VN is the mean tumor volume measured on Day N of administration.
# The synergy of the combination of TJC4 and AMG-510 was calculated as: […]
# [2] = test system: NCI-H358 human NSCLC tumor cells (KRAS G12C); test: In vitro phagocytosis of NCI-H358 tumor cells by M0 macrophages (IncuCyte pHrodo); assay type: cell-based; settings: AMG 510 pre-treatment 0.1, 1 or 10 μm 24 hours, then M0 macrophage 1:1 and 1 μg/ml TJC4 3-6 hours, FIG. 4A-4C
# Protocol: The following experiments were performed to assess the effects of anti-CD47 antibody TJC4 in combination with the KRAS G12C inhibitor AMG-510 on the in vitro phagocytosis of NCI-H358 human NSCLC tumor cells. As discussed in Example 1, NCI-H358 cells bear the KRAS G12C mutation. The in vitro phagocytosis assays were performed by co-culturing M0 macrophage cells with INCUCYTE® PHRODO®-labeled NCI-H358 tumor cells. Briefly, prior to co-culture, NCI-H358 cells were pre-treated with AMG 510 at the concentrations of 0 μm, 0.1 μm, 1 μm, or 10 μm for 24 hours. The NCI-H358 cells were further incubated with M0 macrophage (at a ratio of 1:1) and 1 μg/ml TJC4 for 3-6 hours. The NCI-H358 cells were then subject to INCUCYTE® ZOOM Live-Cell Imaging System analysis, and the percentage of phagocytosed NCI-H358 was calculated.
# Synergy of the combination of AMG 510 and TJC4 in inducing phagocytosis was calculated as: […]
# An F value≥1.00 indicates a synergistic effect between AMG-510 and TJC4.
# KRAS G12D mutant protein = KRAS G12D mutant protein (Homo sapiens, UniProt P01116, G12D); settings: Wang et al. (2022) J Med Chem; cited from earlier work
# [3] = test system: human LS180 colon adenocarcinoma tumor xenografts; test: In vivo anti-tumor efficacy in mice bearing LS180 colon adenocarcinoma xenografts (bioluminescence imaging); set-up: species or system BALB/c nude mice; settings: MRTX1133 20 mg/kg, TJC4 1 mg/kg, intraperitoneally twice a week for four weeks, FIG. 7B
# Protocol: The anti-tumor efficacy of anti-CD47 antibody TJC4 in combination with the KRAS G12D inhibitor MRTZ1133 was assessed in mice bearing human LS180 colon adenocarcinoma tumor xenografts. Briefly, 5×10^5 LS180 cells were injected into the cecal walls of BALB/c nude mice. Tumors formed and grew stably after 2 weeks. Mice were given one of the following treatments for four weeks: (a) PBS (control); (b) TJC4 (1 mg/kg, intraperitoneally twice a week); (c) MRTX1133 (20 mg/kg, intraperitoneally twice a week); or (d) MRTX1133 (20 mg/kg, intraperitoneally twice a week)+TJC4 (1 mg/kg, intraperitoneally twice a week). Tumor growth was evaluated by Bioluminescence imaging (BLI) every week.
# [4] = test system: LS180 human colon adenocarcinoma cells (KRAS G12D); test: In vitro phagocytosis of LS180 colon cancer cells by macrophages (flow cytometry); assay type: cell-based; settings: MRTX1133 100 nM, TJC4 0.5 μg/ml, 24 hours; co-culture 2 hours; combination compared to either agent alone, FIG. 5B
# Protocol: LS180 human colon adenocarcinoma cells, which harbor the KRAS G12D mutation were incubated with (a) DMSO, (b) the KRAS G12D inhibitor MRTX1133 (100 nM), (c) anti-CD47 antibody TJC4 (0.5 μg/ml), or (d) MRTX1133 (100 nM)+TJC4 (0.5 μg/ml) for 24 hours and then labeled with 2.5 μM carboxyfluorescein succinimidyl ester (CFSE) for 10 minutes at 37° C. Macrophage cells, which were obtained by human THP-1 leukemia monocyte cells with lipopolysaccharide (LPS) for 24 hours, were cultured in a serum free medium for 2 hours and then added to 2×10^5 CFSE-labeled LS180 cells. The macrophages and the LS180 cells were co-cultured at 37° C. for 2 hours. Macrophages were then stained with an APC-labeled anti-F4/80 antibody, and CFSE+ F4/80+ cells were detected by flow cytometry (10,000 cells analyzed in each sample). The percentage of macrophage-phagocytosed LS180 cells was calculated by dividing the number of CFSE+ F4/80+ cells (see the top right quadrant, i.e., Q2, of each flow cytometry histogram in FIG. 5A) by the number CFSE+ cells (see the top left and right quadrants, i.e., Q1 and Q2, respectively) of each flow cytometry histogram in FIG. 5A). In other words, macrophage-phagocytosed LS180 cells (%)=[Q2/(Q1+Q2)]×100%.
# [5] = test system: LS180 human colon adenocarcinoma cells; test: Apoptosis of LS180 cells (FITC-Annexin V / PI flow cytometry); assay type: cell-based; settings: MRTX1133 100 nM, TJC4 0.5 μg/ml, 24 hours; combination compared to either agent alone, FIG. 6A/6B
# Protocol: LS180 human colon adenocarcinoma cells were incubated with (a) DMSO, (b) the KRAS G12D inhibitor MRTX1133 (100 nM), (c) anti-CD47 antibody TJC4 (0.5 μg/ml), or (d) MRTX1133 (100 nM)+TJC4 (0.5 μg/ml) for 24 hours and then labeled with fluorescein isothiocyanate (FITC)-Annexin V and propidium iodide (PI). Annexin V (or Annexin A5) is a member of the annexin family of intracellular proteins that binds to phosphatidylserine (PS) in a calcium-dependent manner. PS is normally only found on the intracellular leaflet of the plasma membrane in healthy cells, but during early apoptosis, membrane asymmetry is lost, and PS translocates to the external leaflet. FITC-labeled Annexin V can then be used to specifically target and identify apoptotic cells. PI a cell impermeable nucleic acid intercalating dye. Following staining, the cells were analyzed via flow cytometry.
Molecule,tumor growth inhibition as compared to mice treated with PBS control [1],TJC4-mediated phagocytosis of NCI-H358 by macrophages [2],specificity to the KRAS G12D mutant protein relative to wild-type KRAS (KRAS G12D mutant protein),tumor growth (bioluminescence imaging) [3],phagocytosis of LS180 cells by macrophages [4],apoptosis of LS180 cells [5]
"C=CC(=O)N1CCN(c2nc(=O)n(-c3c(C)ccnc3C(C)C)c3nc(-c4c(O)cccc4F)c(F)cc23)[C@@H](C)C1 [AMG-510, 6-Fluoro-7-(2-fluoro-6-hydroxyphenyl)-(1M)-1-[4-methyl-2-(propan-2-yl)pyridin-3-yl]-4-[(2S)-2-methyl-4-(prop-2-enoyl)piperazin-1-yl]pyrido[2,3-d]pyrimidin-2(1H)-one]",did not demonstrate tumor growth inhibition,enhanced,,,,
C#Cc1c(F)ccc2cc(O)cc(-c3ncc4c(N5CC6CCC(C5)N6)nc(OC[C@@]56CCCN5C[C@H](F)C6)nc4c3F)c12 [MRTX1133],,,more than 1000 times,inhibited tumor growth,increased,increased
B1,did not demonstrate tumor growth inhibition,,,weak inhibitory effect,increased,increased
